Measured values: patent US4764603A, “Stable salts of S-adenosyl-L-methionine with polyanions” (priority 1985, dated 1988)
Counter-ions that a name gives are not always drawn. Each block holds one molecule with its values, some of them ahead of it.

Key:
physchem = format: physicochemical
Experimental: The salts of the present invention are particularly stable even at substantially higher temperatures than the room temperature: an analysis of their thermal stability versus time has, in fact, shown an unlimited stability of these compounds, when maintained in solid phase at 45° C. However, at 75° C., differentiated behaviors of the various salts prepared are observed with respect to one another.

[1] = Hygroscopicity of the lyophilized or dried solid; format: physicochemical
[2] = format: physicochemical
[3] = Excerpt: The liquors are removed by simple decantation and the precipitate is washed twice with 10 l of distilled H2 O while keeping the system under strong stirring.
edema = conditions: carrageenin and white-of-egg acute edema; adjuvant arthritis; cited from earlier work
steatosis = conditions: diet; alcohol, carbon tetrachloride, bromobenzene; cited from earlier work
[4] = test system: osteoarthritis, Parkinson's disease, disorder of sleep, depression, atherosclerosis; conditions: cited from earlier work
cholestasis = conditions: in vivo; cited from earlier work
pain from myotasis = conditions: in vivo; cited from earlier work
[5] = test system: methylene tetrahydrofolic reductase; conditions: cited from earlier work
H ribonuclease = conditions: cited from earlier work
[6] = test system: ethanolamianephosphate cytidyltransferase; conditions: cited from earlier work
[7] = test system: transmethylation reactions; conditions: cited from earlier work

stability of the salt at 45° C. (physchem): unlimited
thermal stability at 75° C. versus SAM chloride and the double salt SAM^+.HSO4^-.H2 SO4.2CH3 C6 H4 SO3 H (physchem): higher stability
hygroscopicity [1]: nonhygroscopic
residual acidity [2]: negligible
solubilization at pH 6 ([3]; pH 6): solubilizes rapidly
SMILES: C[S+](CC[C@H](N)C(=O)O)C[C@H]1O[C@@H](n2cnc3c(N)ncnc32)[C@H](O)[C@@H]1O (stereo partly drawn) [Example 9]

stability of the salt at 45° C. (physchem): unlimited
thermal stability at 75° C. versus SAM chloride and the double salt SAM^+.HSO4^-.H2 SO4.2CH3 C6 H4 SO3 H (physchem): higher stability
SMILES: C[S+](CC[C@H](N)C(=O)O)C[C@H]1O[C@@H](n2cnc3c(N)ncnc32)[C@H](O)[C@@H]1O (stereo partly drawn) [Example 1, salt of SAM with the polyparastyrene sulfonate]

thermal stability at 75° C. versus SAM chloride and the double salt SAM^+.HSO4^-.H2 SO4.2CH3 C6 H4 SO3 H (physchem): higher stability
SMILES: C[S+](CC[C@H](N)C(=O)O)C[C@H]1O[C@@H](n2cnc3c(N)ncnc32)[C@H](O)[C@@H]1O (stereo partly drawn) [Example 7]

SMILES: C[S@@+](CC[C@H](N)C(=O)O)C[C@H]1O[C@@H](n2cnc3c(N)ncnc32)[C@H](O)[C@@H]1O [SAM, 5'-[[(3S)-3-amino-3-carboxy-propyl]methyl-(S)-sulfone]-5'-deoxyadenosine]
anti-inflammatory effect (edema): ANTI-INFLAMMATORY
hepatoprotective effect (steatosis): HEPATOPROTECTIVE
clinical effect: akinesia and rigidity ([4]; Parkinson's disease): IMPROVES AKINESIA
effect on the action of levodopa ([4]; Parkinson's disease): ENHANCING
clinical effect: psycho-affective sphere ([4]; atherosclerosis): IMPROVES
effect on sleep ([4]; disorder of sleep mechanism or of waking-sleeping rhythm): SLEEP INDUCING
antidepressant effect ([4]; in vivo): ANTIDEPRESSANT
clinical effect: (depressive) symptomatology ([4]; in vivo): REDUCES OR RESOLVES
clinical effect: muscular spasms ([4]; osteoarthritis): improves
bile fluidifying effect (cholestasis): BILE FLUIDIFYING
analgesic effect (pain from myotasis): ANALGESIC
inhibition of methylene tetrahydrofolic reductase [5]: inhibitor
inhibition of H ribonuclease (H ribonuclease): inhibitor
inactivation of H ribonuclease (H ribonuclease; from calf thymus gland): irreversible inactivation
inhibition of ethanolaminephosphate cytidyltransferase [6]: inhibitor

hygroscopicity [1]: nonhygroscopic
solubilisation time / rate at pH >4 relative to Example 1 [3]: increase in solubilisation times
SMILES: C[S+](CC[C@H](N)C(=O)O)C[C@H]1O[C@@H](n2cnc3c(N)ncnc32)[C@H](O)[C@@H]1O (stereo partly drawn) [Example 2]

half-life time at 75° C. (physchem): more than one
stability of the salt at 45° C. (physchem): unlimited
thermal stability at 75° C. versus SAM chloride and the double salt SAM^+.HSO4^-.H2 SO4.2CH3 C6 H4 SO3 H (physchem): higher stability
hygroscopicity [1]: nonhygroscopic
residual acidity [2]: negligible
solubilization at pH >4 [3]: solubilizes rapidly
SMILES: C[S+](CC[C@H](N)C(=O)O)C[C@H]1O[C@@H](n2cnc3c(N)ncnc32)[C@H](O)[C@@H]1O (stereo partly drawn) [Example 4]

SMILES: C[S+](CCCN)C[C@H]1O[C@@H](n2cnc3c(N)ncnc32)[C@H](O)[C@@H]1O (stereo partly drawn) [deca-SAM, S-adenosyl-(5')-3-methylthiopropylamine]
inhibition of transmethylation reactions [7]: inhibitor

thermal stability at 75° C. versus SAM chloride and the double salt SAM^+.HSO4^-.H2 SO4.2CH3 C6 H4 SO3 H (physchem): higher stability
hygroscopicity [1]: nonhygroscopic
solubilisation time / rate at pH >4 relative to Example 1 [3]: slower rate of solubilization
SMILES: C[S+](CC[C@H](N)C(=O)O)C[C@H]1O[C@@H](n2cnc3c(N)ncnc32)[C@H](O)[C@@H]1O (stereo partly drawn) [Example 3]

stability of the salt at 45° C. (physchem): unlimited
thermal stability at 75° C. versus SAM chloride and the double salt SAM^+.HSO4^-.H2 SO4.2CH3 C6 H4 SO3 H (physchem): higher stability
half-life (physchem; solid phase, half-life time at 75° C.): > 240 h
hygroscopicity [1]: nonhygroscopic
residual acidity [2]: negligible
solubilization at pH 7 ([3]; pH 7): rapidly solubilized
SMILES: C[S+](CC[C@H](N)C(=O)O)C[C@H]1O[C@@H](n2cnc3c(N)ncnc32)[C@H](O)[C@@H]1O (stereo partly drawn) [Example 5]

SMILES: Nc1ncnc2c1ncn2[C@@H]1O[C@H](CSCC[C@H](N)C(=O)O)[C@@H](O)[C@H]1O [SAH, S-adenosyl-homocysteine]
inhibition of transmethylation reactions [7]: powerful inhibitor
